According to patent US20050032138A1 (priority 2003, published 2005):
Read-outs that look alike come from different tables or passages of the source.

How the values were obtained:
PrPc and PrPsc [1] = test system: PrPc and PrPsc
PrPc [2] = molecular target: PrPc (Mesocricetus auratus, UniProt P04273)
PrPc [3] = molecular target: T1, PrPc (Homo sapiens, UniProt P04156)
PrPc and PrPsc [4] = molecular target: PrPc and PrPsc (Homo sapiens, UniProt P04156)
PrPc [5] = molecular target: T1, PrPc; remark: listed apart in the source
[6] = Fast Red staining with 3F4, red/pink beads indicate bound native PrPc or antibody, scrapie-infected hamster brain homogenate

Sequence of PrPc (Mesocricetus auratus, UniProt P04273) (P04273 23-254 limits assumed): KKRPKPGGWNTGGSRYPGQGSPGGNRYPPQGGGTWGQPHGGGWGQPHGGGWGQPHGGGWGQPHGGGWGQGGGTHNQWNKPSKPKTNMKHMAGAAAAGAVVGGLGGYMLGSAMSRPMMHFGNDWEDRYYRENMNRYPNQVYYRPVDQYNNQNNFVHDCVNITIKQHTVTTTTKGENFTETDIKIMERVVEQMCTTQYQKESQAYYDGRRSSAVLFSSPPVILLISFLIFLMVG

## EWWETV
PrPc and PrPsc [1]
  Intensity of Chemiluminescent Signal after Denaturing: Medium
PrPc [2]
  Bead Color: White

## RWD
PrPc and PrPsc [1]
  Intensity of Chemiluminescent Signal after Denaturing: Strong
PrPc [2]; [6]
  Bead Color: Bright pink

## KWATRYA
PrPc and PrPsc [1]
  Intensity of Chemiluminescent Signal after Denaturing: Strong
PrPc [2]
  Bead Color: White

## WEE
PrPres
  Beads identified as PrPsc-specific binders (film 2 signal from PrPres after PK): specific for PrPsc

## HWK
PrPres
  Beads identified as PrPsc-specific binders (film 2 signal from PrPres after PK): specific for PrPsc

## YID
PrPc and PrPsc [1]
  Intensity of Chemiluminescent Signal after Denaturing: Strong
PrPc [2]; [6]
  Bead Color: Bright pink

## NSTKFDA
PrPc and PrPsc [1]
  Intensity of Chemiluminescent Signal after Denaturing: Strong
PrPc [2]
  Bead Color: Pink

## VARENIA
PrPc and PrPsc [1]
  Intensity of Chemiluminescent Signal after Denaturing: Strong
PrPc [2]
  Bead Color: White

## TGTNRYA
PrPc and PrPsc [1]
  Intensity of Chemiluminescent Signal after Denaturing: Strong
PrPc [2]
  Bead Color: White

## FQGTREA
PrPc and PrPsc [1]
  Intensity of Chemiluminescent Signal after Denaturing: Strong
PrPc [2]
  Bead Color: White

## EHATYRA
PrPc and PrPsc [1]
  Intensity of Chemiluminescent Signal after Denaturing: Strong
PrPc [2]
  Bead Color: White

## DVR
PrPc and PrPsc [1]
  Intensity of Chemiluminescent Signal after Denaturing: Strong
PrPc [2]
  Bead Color: White
PrPc [3]
  Signal on the first support: weak
PrPc and PrPsc [4]
  Isoform binding preference concluded from first and second support signals: preferentially binds PrPsc
  Signal on the second support following denaturation and transfer: strong
PrPc [5]
  Bead colour under the microscope following on-bead detection: white

## LLR
PrPres
  Beads identified as PrPsc-specific binders (film 2 signal from PrPres after PK): specific for PrPsc

## RWEREDA
PrPc and PrPsc [1]
  Intensity of Chemiluminescent Signal after Denaturing: Strong
PrPc [2]
  Bead Color: Pink

## FPK
PrPres
  Beads identified as PrPsc-specific binders (film 2 signal from PrPres after PK): specific for PrPsc

## SVYQLDA
PrPc and PrPsc [1]
  Intensity of Chemiluminescent Signal after Denaturing: Medium
PrPc [2]
  Bead Color: White
